The subject of assay [1] is IL-23 (p19/p40). Put plainly: IL23-p19 ELISA, dendritic cells (DC differentiated from human PBMC, IFNγ primed), LPS stimulated. The assay is classed as cell-based. As to conditions: Dendritic cell, human PBMC-derived dendritic cells, 1 h compound pre-incubation, LPS 1 μg/ml 18 hours, 10 pt. As for the experimental part:
Compound Screening Using DC Cells
I. Differentiation of PBMC's to DC Cells:
After 2 hours, the media including floating cells was aspirated out carefully and 12 ml of fresh RPMI media (10% FBS) containing GMCSF (100 ng/ml) and IL4 (20 ng/ml) was added, and the flask was kept in a 37° C. incubator for 7 days.
After 3 days, fresh GMCSF (100 ng/ml) and IL4 (20 ng/ml) were added to the flask and the incubation continued. After 7 days, the fully differentiated cells were harvested by spinning down (1200 rpm/5 min) and aspirating the media. The cells were suspended in fresh RPMI media (10% FBS) containing 50 ng/ml IFNγ (1000 U/ml) and then plated (50K/well in 100 μl) onto a white clear bottom 96 well plate and left in a 37° C. incubator for 24 hours.
II. Addition of Compounds:
After 24 hours incubation, 100 μl of RPMI media was added containing 2× concentrated test compound per well to the above cell-culture media (final concentration becomes 1×) and the plates were pre-incubated for 1 hour at 37° C. before stimulating with LPS.
The mixture was shaken and incubated the plates at 37° C. for an additional 18 hours.
155 μl of the supernatant was harvested from each well carefully (without the tip touching the bottom of the well) and to the remaining 50 μl/well of the cell culture plate was added 50 μl of Cell Titer Glo reagent. The mixture was incubated for 1-2 minutes on a shaker and the plate was read for luminescence intensity to determine the compound cytotoxicity. The cell culture supernatant collected above was used to carry out IL23 ELISA (65 μl—Supernatant) and IL10 ELISA (90 μl—Supernatant) as described below.
Human IL-23 (p19/p40) ELISA Protocol (e-Biosciences)
To 10.5 ml PBS add 50 μl of anti-IL23 (p19) was added capture antibody (2.5 μg/ml). The mixture was mixed well and 100 μl of the coating solution was added to each well of the 96 well white plates from Pierce. The wells were covered and incubated overnight at 4° C.
The anti-IL23 (p19)-antibody-coated plates were washed 2× using TBST (use plate washer) and blocked using 200 μl of 0.5% Casein for 1.5-2 hours at room temperature with shaking.
Addition of Supernatant and Detection:
The plates were washed 2× using TBST and the supernatant was transferred (65 μl/well) to the above pre-blocked/IL23(p19)-antibody-coated 96 well plate, and incubated at room temperature for 1.5 hours with shaking.
The plates were washed 4× using TBST (plate washer) and 100 μl/well detection antibody solution prepared from 2 μl of biotin labeled anti-IL-12 (p40/p70) antibody in 11 ml 1% BSA/PBS solution (1-5000 dilution) was added. The plates were incubated for 1 hour with shaking at Room temperature.
Again, the plates were washed 4× with TBST and 100 μl of HRP labeled Streptavidin (R&D Systems) solution (10 μl/10 ml 1% BSA solution) was added, and the plates were incubated at room temperature for another 45 minutes with shaking.
After 45 minutes, the plates were washed with TBST 4× and 100 μl/well Super Signal ELISA Pico Chemiluminescent Substrate from Pierce (3.5 ml A+3.5 ml B+3.5 ml MQ water) was added. The plates were shaken for 1-2 minutes then read on a plate reader.

Assay [2] concerns IL-23p19. Put plainly: LPS Induced IL23p19 in THP-1 Cells (with IFNγ Primed) Assay. It is filed as cell-based, human. To be noted: Homo sapiens, THP-1, THP-1 cells, IFNγ (50 ng/mL) primed, 1 hour compound pre-incubation, LPS 1 ug/mL 18 hours, 10 pt; read-out: IL23-p19 ELISA, THP1-IFNy, LPS, 10 pt EC50. Summed up:
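THP-1 cells (50K/well) primed ~18 h with IFNγ (50 ng/mL) in RPMI/10% FBS, then incubated with compound in duplicate for 18 h at 37° C. Supernatant IL-23p19 measured by chemiluminescent sandwich ELISA, giving EC50 by curve fitting. Toxicity assessed in parallel on the remaining cells by Cell Titer Glo.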
Background: An ELISA detects its analyte on a solid surface through an enzyme-linked reagent.

Counter-ions that a name gives are not always drawn.

Data on 23 compounds can be found in US10947216B2, “Amide compounds and method for making and using” (Rigel Pharmaceuticals, Inc., priority 2016, dated 2021).

A word on the EC50: it is the concentration that produces a half-maximal response.

As for `Cn1cc(NC(=O)c2cccc(-c3cnc4[nH]ccc4c3)n2)c(-c2ccccn2)n1` [Compound I-44, N-(1-methyl-3-(pyridin-2-yl)-1H-pyrazol-4-yl)-6-(1H-pyrrolo[2,3-b]pyridin-5-yl)picolinamide], the EC50 in assay [1] was 1760 nM; in assay [2], 349 nM.
On the same counts, the results for `COc1ccc(-c2cccc(C(=O)Nc3cn(C)nc3-c3ccccn3)n2)cc1` [Compound I-52, 6-(4-methoxyphenyl)-N-(1-methyl-3-(pyridin-2-yl)-1H-pyrazol-4-yl)picolinamide] are 1110 nM and 4480 nM.
On the same counts, the results for `CN(C)c1cccc(-c2cccc(C(=O)Nc3cn(C)nc3-c3ccccn3)n2)c1` [Compound I-59, 6-(3-(dimethylamino)phenyl)-N-(1-methyl-3-(pyridin-2-yl)-1H-pyrazol-4-yl)picolinamide] are 2470 nM and 23900 nM.
`Cn1cc(NC(=O)c2cccc(C3=CCCNC3)n2)c(-c2ccccn2)n1` [Compound I-65, N-(1-methyl-3-(pyridin-2-yl)-1H-pyrazol-4-yl)-1′,2′,5′,6′-tetrahydro-[2,3′-bipyridine]-6-carboxamide]: the EC50 in assay [1] is 7880 nM; in assay [2] it was 77200 nM.
On the same counts, the results for `COc1ccc(-c2nn(C)cc2NC(=O)c2cccc(-c3ccn[nH]3)n2)nc1` [Compound I-67, N-(3-(5-methoxypyridin-2-yl)-1-methyl-1H-pyrazol-4-yl)-6-(1H-pyrazol-5-yl)picolinamide] are 2680 nM and 483 nM.
On the same counts, the results for `COc1ccc(-c2nn(C)cc2NC(=O)c2cccc(-c3cn[nH]c3)n2)nc1` [Compound I-68, N-(3-(5-methoxypyridin-2-yl)-1-methyl-1H-pyrazol-4-yl)-6-(1H-pyrazol-4-yl)picolinamide] are 2410 nM and 290 nM.
As for `COc1ccc(-c2nn(C)cc2NC(=O)c2cccc(-c3cncc(C)c3)n2)nc1` [Compound I-69, N-(3-(5-methoxypyridin-2-yl)-1-methyl-1H-pyrazol-4-yl)-5′-methyl-[2,3′-bipyridine]-6-carboxamide], the EC50 was determined as 1500 nM in assay [1] and 1200 nM in assay [2].
For `COc1ccc(-c2nn(C)cc2NC(=O)c2cccc(-c3cncc(NC(C)C)c3)n2)nc1` [Compound I-71, 5′-(isopropylamino)-N-(3-(5-methoxypyridin-2-yl)-1-methyl-1H-pyrazol-4-yl)-[2,3′-bipyridine]-6-carboxamide] the same measures were 415 nM and 300 nM.
On the same counts, the results for `Cn1cc(NC(=O)c2cccc(-c3cn[nH]c3)n2)c(N2CCCC2)n1` [Compound I-72, N-(1-methyl-3-(pyrrolidin-1-yl)-1H-pyrazol-4-yl)-6-(1H-pyrazol-4-yl)picolinamide] are 3170 nM and 7580 nM.
On the same counts, the results for `Cn1cc(NC(=O)c2cccc(-c3cn[nH]c3)n2)c(N2CCCCC2)n1` [Compound I-73, N-(1-methyl-3-(piperidin-1-yl)-1H-pyrazol-4-yl)-6-(1H-pyrazol-4-yl)picolinamide] are 2160 nM and 1770 nM.
As to `Cn1cc(NC(=O)c2cccc(-c3cn[nH]c3)n2)c(N2CCOCC2)n1` [Compound I-74, N-(1-methyl-3-morpholino-1H-pyrazol-4-yl)-6-(1H-pyrazol-4-yl)picolinamide], the figures for the EC50 in assay [1] and in assay [2] were 3820 nM and 18800 nM, respectively.
For `Cc1cncc(-c2cccc(C(=O)Nc3cn(C)nc3N3CCCCC3)n2)c1` [Compound I-76, 5′-methyl-N-(1-methyl-3-(piperidin-1-yl)-1H-pyrazol-4-yl)-[2,3′-bipyridine]-6-carboxamide] the same measures were 4320 nM and 1930 nM.
As to `Cc1cncc(-c2cccc(C(=O)Nc3cn(C)nc3N3CCOCC3)n2)c1` [Compound I-77, 5′-methyl-N-(1-methyl-3-morpholino-1H-pyrazol-4-yl)-[2,3′-bipyridine]-6-carboxamide], the EC50 in assay [1] was 2160 nM; in assay [2], 33200 nM.
For the compound `Cc1n[nH]cc1-c1cccc(C(=O)Nc2cn(C)nc2-c2ccccn2)n1` [Compound I-78, 6-(3-methyl-1H-pyrazol-4-yl)-N-(1-methyl-3-(pyridin-2-yl)-1H-pyrazol-4-yl)picolinamide], the 50% effective concentration (EC50) was determined as 832 nM in assay [1] and 643 nM in assay [2].
Regarding `CC(C)n1cc(NC(=O)c2cccc(-c3cn[nH]c3)n2)c(-c2ccccn2)n1` [Compound I-80, N-(1-isopropyl-3-(pyridin-2-yl)-1H-pyrazol-4-yl)-6-(1H-pyrazol-4-yl)picolinamide], the results for the EC50 in assay [1] and in assay [2] were 8790 nM and 2390 nM, respectively.
For `Cc1cncc(-c2cccc(C(=O)Nc3cn(C(C)C)nc3-c3ccccn3)n2)c1` [Compound I-81, N-(1-isopropyl-3-(pyridin-2-yl)-1H-pyrazol-4-yl)-5′-methyl-[2,3′-bipyridine]-6-carboxamide] the same measures were 6470 nM and 2780 nM.
On the same counts, the results for `O=C(Nc1cn(CCN2CCOCC2)nc1-c1ccccn1)c1cccc(-c2cn[nH]c2)n1` [Compound I-83, N-(1-(2-morpholinoethyl)-3-(pyridin-2-yl)-1H-pyrazol-4-yl)-6-(1H-pyrazol-4-yl)picolinamide] are 82700 nM and 2010 nM.
With `CN1CCN(CCn2cc(NC(=O)c3cccc(-c4cn[nH]c4)n3)c(-c3ccccn3)n2)CC1` [Compound I-86, N-(1-(2-(4-methylpiperazin-1-yl)ethyl)-3-(pyridin-2-yl)-1H-pyrazol-4-yl)-6-(1H-pyrazol-4-yl)picolinamide], the EC50 was determined as 407 nM in assay [1] and 98.5 nM in assay [2].
As for `Cc1cncc(-c2cccc(C(=O)Nc3cn(CCN4CCN(C)CC4)nc3-c3ccccn3)n2)c1` [Compound I-87, 5′-methyl-N-(1-(2-(4-methylpiperazin-1-yl)ethyl)-3-(pyridin-2-yl)-1H-pyrazol-4-yl)-[2,3′-bipyridine]-6-carboxamide], the EC50 in assay [1] turned out to be 2000 nM; in assay [2] it was 75.4 nM.
For `Cn1cc(NC(=O)c2cccc(-c3ccncc3)n2)c(-c2cnccn2)n1` [Compound I-100, N-(1-methyl-3-(pyrazin-2-yl)-1H-pyrazol-4-yl)-[2,4′-bipyridine]-6-carboxamide] the same measures were 9850 nM and 64100 nM.
For `Cn1cc(NC(=O)c2cccc(-c3cccnc3)n2)c(-c2cnccn2)n1` [Compound I-101, N-(1-methyl-3-(pyrazin-2-yl)-1H-pyrazol-4-yl)-[2,3′-bipyridine]-6-carboxamide] the same measures were 1830 nM and 14500 nM.
For `CC(=O)Nc1ccc(-c2cccc(C(=O)Nc3cn(C)nc3-c3cnccn3)n2)cn1` [Compound I-102, 6′-acetamido-N-(1-methyl-3-(pyrazin-2-yl)-1H-pyrazol-4-yl)-[2,3′-bipyridine]-6-carboxamide] the same measures were 2040 nM and 26700 nM.
Regarding `O=C(Nc1cn(CCO)nc1-c1ccccn1)c1cccc(-c2ccncc2)n1` [Compound I-108, N-(1-(2-hydroxyethyl)-3-(pyridin-2-yl)-1H-pyrazol-4-yl)-[2,4′-bipyridine]-6-carboxamide formate], the figures for the EC50 in assay [1] and in assay [2] were 4920 nM and 5960 nM, respectively.
